Measured values published in ChEMBL document CHEMBL1201862, “PubChem BioAssay data set” (2004).
The source made the active and inactive calls.

Columns and labels:
[1] = target: T1, Acyl-homoserine lactone acylase PvdQ (Pseudomonas aeruginosa (strain LESB58), UniProt Q9I194); assay: P. aeruginosa PvdQ acylase inhibitors, dose response, biochemical, fluorescence, plate reader and imaging, cherry-picks (AID 493231)
T1 sequence (Q9I194 whole entry): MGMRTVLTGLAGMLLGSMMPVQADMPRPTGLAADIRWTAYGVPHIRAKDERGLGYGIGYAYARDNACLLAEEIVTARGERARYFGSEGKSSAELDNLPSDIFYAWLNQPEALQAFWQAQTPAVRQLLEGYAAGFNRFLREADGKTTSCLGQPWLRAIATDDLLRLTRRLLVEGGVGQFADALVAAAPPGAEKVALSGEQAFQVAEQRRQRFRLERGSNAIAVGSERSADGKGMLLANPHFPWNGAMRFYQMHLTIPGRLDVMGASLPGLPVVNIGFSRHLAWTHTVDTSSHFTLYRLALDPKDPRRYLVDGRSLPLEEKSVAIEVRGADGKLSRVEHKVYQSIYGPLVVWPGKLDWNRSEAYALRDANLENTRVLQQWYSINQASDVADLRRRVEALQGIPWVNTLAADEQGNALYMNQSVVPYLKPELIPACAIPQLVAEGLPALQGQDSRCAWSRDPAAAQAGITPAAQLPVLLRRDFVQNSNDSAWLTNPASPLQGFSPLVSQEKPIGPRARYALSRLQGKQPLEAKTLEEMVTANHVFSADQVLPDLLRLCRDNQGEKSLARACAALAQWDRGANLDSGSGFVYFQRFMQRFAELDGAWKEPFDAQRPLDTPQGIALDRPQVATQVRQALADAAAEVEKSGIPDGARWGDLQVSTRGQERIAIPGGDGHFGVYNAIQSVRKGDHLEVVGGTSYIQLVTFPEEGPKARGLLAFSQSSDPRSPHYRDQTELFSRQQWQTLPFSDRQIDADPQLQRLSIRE

Cytochrome P450 2D6 = Cytochrome P450 2D6 (Homo sapiens, UniProt P10635);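 also: CYP2D6 member of a cytochrome P450 panel assay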
Sequence of Cytochrome P450 2D6 (P10635 whole entry): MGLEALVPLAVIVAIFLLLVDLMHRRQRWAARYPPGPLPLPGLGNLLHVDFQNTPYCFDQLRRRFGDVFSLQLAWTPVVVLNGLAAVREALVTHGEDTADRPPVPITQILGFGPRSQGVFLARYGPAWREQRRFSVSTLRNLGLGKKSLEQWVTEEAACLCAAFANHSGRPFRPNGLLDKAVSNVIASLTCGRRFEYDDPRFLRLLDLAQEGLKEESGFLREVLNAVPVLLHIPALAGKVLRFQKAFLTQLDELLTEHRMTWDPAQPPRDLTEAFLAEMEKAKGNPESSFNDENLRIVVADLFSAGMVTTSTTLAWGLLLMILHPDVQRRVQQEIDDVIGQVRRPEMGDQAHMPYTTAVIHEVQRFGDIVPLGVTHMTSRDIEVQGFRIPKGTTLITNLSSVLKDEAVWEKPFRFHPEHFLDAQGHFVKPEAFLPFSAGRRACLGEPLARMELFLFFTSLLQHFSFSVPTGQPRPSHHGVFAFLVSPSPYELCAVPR

Cytochrome P450 3A4 = Cytochrome P450 3A4 (Homo sapiens, UniProt P08684);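 also: CYP3A4 tested as one member of a cytochrome P450 panel screen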
Sequence of Cytochrome P450 3A4 (P08684 whole entry): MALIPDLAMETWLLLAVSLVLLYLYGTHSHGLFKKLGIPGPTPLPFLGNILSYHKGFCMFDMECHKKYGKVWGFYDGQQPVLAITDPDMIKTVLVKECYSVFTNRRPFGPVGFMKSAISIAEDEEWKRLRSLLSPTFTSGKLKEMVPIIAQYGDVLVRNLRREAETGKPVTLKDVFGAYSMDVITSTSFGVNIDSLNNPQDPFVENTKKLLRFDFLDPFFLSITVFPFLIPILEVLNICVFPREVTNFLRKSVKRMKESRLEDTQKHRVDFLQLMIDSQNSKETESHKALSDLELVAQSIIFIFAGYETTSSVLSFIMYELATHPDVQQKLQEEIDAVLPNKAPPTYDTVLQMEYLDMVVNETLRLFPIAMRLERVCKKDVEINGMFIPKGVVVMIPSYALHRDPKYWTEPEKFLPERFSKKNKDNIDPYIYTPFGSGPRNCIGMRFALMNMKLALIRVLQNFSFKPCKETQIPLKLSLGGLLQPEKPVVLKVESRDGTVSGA

[2] = target: DNA dC->dU-editing enzyme APOBEC-3G (Homo sapiens, UniProt Q9HC16); format: functional;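 also: Dose-response counterscreen measuring inhibition of APOBEC3G DNA deaminase activity, run while confirming APOBEC3A inhibitors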
Sequence of DNA dC->dU-editing enzyme APOBEC-3G (Q9HC16 whole entry): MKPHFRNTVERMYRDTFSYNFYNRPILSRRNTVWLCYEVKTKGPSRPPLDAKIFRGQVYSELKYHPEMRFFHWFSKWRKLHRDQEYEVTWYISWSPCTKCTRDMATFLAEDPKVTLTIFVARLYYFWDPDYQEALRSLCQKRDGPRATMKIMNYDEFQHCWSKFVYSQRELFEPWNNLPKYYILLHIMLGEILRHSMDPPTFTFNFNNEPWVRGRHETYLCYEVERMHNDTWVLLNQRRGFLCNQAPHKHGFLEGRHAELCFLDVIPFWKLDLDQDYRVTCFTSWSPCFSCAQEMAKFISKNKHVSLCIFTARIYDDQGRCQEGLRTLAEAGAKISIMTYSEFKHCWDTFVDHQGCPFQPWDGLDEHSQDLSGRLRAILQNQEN

[3] = target: DNA dC->dU-editing enzyme APOBEC-3A (Homo sapiens, UniProt P31941); assay: Dose Response confirmation of small molecule APOBEC3A DNA Deaminase Inhibitors via a fluorescence-based single-stranded DNA deaminase assay. [Related pubchem assays (depositor defined):AID493011, AID493024]; format: functional
Sequence of DNA dC->dU-editing enzyme APOBEC-3A (P31941 whole entry): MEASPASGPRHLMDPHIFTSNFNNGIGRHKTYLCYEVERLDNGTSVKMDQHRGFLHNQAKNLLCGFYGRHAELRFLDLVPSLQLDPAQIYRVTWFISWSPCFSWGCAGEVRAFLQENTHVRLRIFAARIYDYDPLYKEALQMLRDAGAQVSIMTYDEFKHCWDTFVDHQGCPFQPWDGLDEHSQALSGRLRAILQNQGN

[4] = THP-1 cell cytotoxicity, dose response, cytotoxicity control for non-replicating M. tuberculosis project (AID 489025); format: functional
cells = format: functional
[5] = target: T2, Short transient receptor potential channel 4 (Mus musculus, UniProt Q9QUQ5); assay: mouse TRPC4 channel activators, dose response, cell-based, HEK293 TRPC4/mu-opioid, Fluo-4 calcium (AID 434937); format: functional
T2 sequence (Q9QUQ5 whole entry): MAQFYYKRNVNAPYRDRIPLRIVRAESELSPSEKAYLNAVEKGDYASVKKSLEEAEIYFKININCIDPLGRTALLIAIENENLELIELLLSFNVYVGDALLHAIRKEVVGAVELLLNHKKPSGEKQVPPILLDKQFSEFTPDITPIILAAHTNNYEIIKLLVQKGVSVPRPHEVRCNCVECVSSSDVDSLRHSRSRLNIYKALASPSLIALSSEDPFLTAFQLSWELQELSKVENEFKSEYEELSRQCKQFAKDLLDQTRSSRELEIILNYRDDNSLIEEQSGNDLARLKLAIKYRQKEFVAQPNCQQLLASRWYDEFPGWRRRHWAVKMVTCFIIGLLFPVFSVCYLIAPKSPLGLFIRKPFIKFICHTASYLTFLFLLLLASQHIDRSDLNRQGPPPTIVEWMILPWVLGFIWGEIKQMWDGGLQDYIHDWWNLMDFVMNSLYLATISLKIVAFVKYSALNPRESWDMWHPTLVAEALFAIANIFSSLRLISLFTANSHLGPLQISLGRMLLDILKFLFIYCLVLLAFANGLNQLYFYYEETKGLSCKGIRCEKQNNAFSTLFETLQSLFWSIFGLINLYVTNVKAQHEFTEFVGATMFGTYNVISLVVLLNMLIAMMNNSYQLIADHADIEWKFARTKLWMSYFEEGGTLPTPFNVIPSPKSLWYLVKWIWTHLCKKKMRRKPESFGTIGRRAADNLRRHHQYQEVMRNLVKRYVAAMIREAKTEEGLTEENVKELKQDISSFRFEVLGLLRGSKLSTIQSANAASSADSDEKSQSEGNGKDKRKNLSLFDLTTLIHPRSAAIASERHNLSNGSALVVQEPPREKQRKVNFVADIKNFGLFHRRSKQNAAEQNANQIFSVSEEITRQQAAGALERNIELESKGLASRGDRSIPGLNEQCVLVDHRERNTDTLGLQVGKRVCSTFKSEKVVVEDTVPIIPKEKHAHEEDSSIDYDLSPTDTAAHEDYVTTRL

[6] = target: 5-hydroxytryptamine receptor 5A (Homo sapiens, UniProt P47898); assay: Counterscreen for agonists of OPRM1-OPRD1 heterodimerization: luminescence-based cell-based high throughput dose response assay to identify agonists of 5-hydroxytryptamine (serotonin) 5A receptor (HTR5A). [Related pubchem assays (depositor defined):AID504326, AID504355, AID504692, AID504904, AID504905]; format: functional
Sequence of 5-hydroxytryptamine receptor 5A (P47898 whole entry): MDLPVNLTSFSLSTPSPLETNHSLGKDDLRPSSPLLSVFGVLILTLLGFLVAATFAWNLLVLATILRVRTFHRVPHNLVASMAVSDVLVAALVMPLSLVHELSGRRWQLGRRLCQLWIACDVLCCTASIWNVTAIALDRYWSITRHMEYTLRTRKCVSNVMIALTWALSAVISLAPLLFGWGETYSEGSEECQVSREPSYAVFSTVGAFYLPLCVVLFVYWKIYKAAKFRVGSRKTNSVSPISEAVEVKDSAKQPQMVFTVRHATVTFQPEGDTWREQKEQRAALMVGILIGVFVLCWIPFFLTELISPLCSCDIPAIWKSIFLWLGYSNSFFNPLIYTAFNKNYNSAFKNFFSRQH

Mu-type opioid receptor = Mu-type opioid receptor (Homo sapiens, UniProt P35372); assay: (§1) Counterscreen for agonists of heterodimerization of the mu 1 (OPRM1) and delta 1 (OPRD1) opioid receptors: Luminescence-based cell-based high throughput dose response assay to identify agonists of OPRM1 homodimerization.; format: functional
Sequence of Mu-type opioid receptor (P35372 whole entry): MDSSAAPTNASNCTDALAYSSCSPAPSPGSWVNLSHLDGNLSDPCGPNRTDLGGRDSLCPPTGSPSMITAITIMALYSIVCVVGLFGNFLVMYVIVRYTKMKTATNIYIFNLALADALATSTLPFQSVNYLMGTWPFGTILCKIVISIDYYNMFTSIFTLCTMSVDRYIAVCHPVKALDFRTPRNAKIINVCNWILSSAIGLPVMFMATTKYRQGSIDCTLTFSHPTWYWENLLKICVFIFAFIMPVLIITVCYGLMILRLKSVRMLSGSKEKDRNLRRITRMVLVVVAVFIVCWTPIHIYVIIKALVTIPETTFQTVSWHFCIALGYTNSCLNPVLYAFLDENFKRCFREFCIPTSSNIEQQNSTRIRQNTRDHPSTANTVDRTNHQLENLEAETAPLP

[7] = target: Delta-type opioid receptor (Homo sapiens, UniProt P41143); assay: as §1, with “of OPRD1” for “of OPRM1”, “homodimerization. [Related pubchem assays (depositor defined):AID504326, AID504355, AID504692, AID504904, AID504905]” for “homodimerization.”; format: functional
Sequence of Delta-type opioid receptor (P41143 whole entry): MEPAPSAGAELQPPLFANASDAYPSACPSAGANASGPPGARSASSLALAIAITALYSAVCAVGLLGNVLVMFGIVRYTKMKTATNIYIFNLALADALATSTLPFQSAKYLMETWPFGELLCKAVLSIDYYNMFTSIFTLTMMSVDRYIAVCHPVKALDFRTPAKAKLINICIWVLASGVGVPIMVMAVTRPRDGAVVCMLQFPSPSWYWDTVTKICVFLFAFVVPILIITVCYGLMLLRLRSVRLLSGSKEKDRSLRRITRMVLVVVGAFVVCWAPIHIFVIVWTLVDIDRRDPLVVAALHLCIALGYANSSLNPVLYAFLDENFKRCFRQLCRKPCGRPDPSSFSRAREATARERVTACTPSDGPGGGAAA

[8] = target: Heat shock protein HSP 90-alpha (Homo sapiens, UniProt P07900); format: functional, organism-based
[9] = Luminescence Cell-Based Dose Retest to Confirm Inhibitors of Cancer Stem Cells. [Related pubchem assays (depositor defined):AID2717, AID2721]; format: functional; conditions: Homo sapiens
H4 = assay: Luminescence Cell-Based Dose Response HTS to Identify Activators of 5'UTR Stem-Loop Driven Prion Protein mRNA Translation in H4 Neuroglioblastoma Cells. [Related pubchem assays: 1829 (Project Summary), 1814 (Primary HTS)]; format: functional; conditions: Homo sapiens
Cytochrome P450 1A2 = target: T3, Cytochrome P450 1A2 (Homo sapiens, UniProt P05177);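 also: PubChem cytochrome P450 panel assay, CYP1A2 panel member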
T3 sequence (P05177 whole entry): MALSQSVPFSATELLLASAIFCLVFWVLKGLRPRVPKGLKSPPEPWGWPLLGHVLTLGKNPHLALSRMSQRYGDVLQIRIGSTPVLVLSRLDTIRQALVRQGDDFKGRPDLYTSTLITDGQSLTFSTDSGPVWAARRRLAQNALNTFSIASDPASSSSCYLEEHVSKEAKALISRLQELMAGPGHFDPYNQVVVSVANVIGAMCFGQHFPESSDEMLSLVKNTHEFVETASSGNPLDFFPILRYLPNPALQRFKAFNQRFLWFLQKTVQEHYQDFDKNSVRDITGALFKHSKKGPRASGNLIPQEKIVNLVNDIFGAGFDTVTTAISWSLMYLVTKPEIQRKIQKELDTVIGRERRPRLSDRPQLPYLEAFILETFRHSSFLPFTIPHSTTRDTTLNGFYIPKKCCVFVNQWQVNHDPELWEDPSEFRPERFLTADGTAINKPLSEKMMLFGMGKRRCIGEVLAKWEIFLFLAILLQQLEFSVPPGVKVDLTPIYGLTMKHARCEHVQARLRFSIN

[10] = Luminescence Cell-Based Dose Response HTS to Identify Activators of Luciferase Translation or Activity in H4 […] Cells. [Related pubchem assays: 1829 (Project Summary), 1814 (Primary HTS)]; format: functional
[11] = Luminescence Cell-Based Dose Confirmation HTS to Identify Activators of 5'UTR Stem-Loop Driven Alpha-Synuclein mRNA Translation in H4 Neuroglioblastoma Cells. [Related pubchem assays: 1829 (Project Summary), 1814 (Primary HTS)]; format: functional
Cytochrome P450 2C19 = Cytochrome P450 2C19 (Homo sapiens, UniProt P33261); assay: Cytochrome panel assay with activity outcomes. Panel member name: p450-cyp2c19 Compounds with AC50 equal or less than 10 uM are considered active; format: functional; conditions: read-out: AC50
Sequence of Cytochrome P450 2C19 (P33261 whole entry): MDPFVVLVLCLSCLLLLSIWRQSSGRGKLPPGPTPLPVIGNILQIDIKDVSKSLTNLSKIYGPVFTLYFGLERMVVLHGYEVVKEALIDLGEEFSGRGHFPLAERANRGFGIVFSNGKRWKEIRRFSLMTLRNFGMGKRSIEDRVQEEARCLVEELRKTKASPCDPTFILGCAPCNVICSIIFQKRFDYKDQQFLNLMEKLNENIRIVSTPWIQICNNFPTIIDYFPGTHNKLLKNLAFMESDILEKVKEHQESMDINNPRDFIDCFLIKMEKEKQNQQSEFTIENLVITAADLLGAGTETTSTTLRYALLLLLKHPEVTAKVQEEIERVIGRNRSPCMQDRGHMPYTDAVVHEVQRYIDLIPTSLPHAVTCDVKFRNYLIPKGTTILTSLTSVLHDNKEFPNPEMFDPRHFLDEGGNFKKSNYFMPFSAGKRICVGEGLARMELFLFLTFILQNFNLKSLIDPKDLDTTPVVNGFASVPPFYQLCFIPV

Cytochrome P450 2C9 = Cytochrome P450 2C9 (Homo sapiens, UniProt P11712)
Sequence of Cytochrome P450 2C9 (P11712 whole entry): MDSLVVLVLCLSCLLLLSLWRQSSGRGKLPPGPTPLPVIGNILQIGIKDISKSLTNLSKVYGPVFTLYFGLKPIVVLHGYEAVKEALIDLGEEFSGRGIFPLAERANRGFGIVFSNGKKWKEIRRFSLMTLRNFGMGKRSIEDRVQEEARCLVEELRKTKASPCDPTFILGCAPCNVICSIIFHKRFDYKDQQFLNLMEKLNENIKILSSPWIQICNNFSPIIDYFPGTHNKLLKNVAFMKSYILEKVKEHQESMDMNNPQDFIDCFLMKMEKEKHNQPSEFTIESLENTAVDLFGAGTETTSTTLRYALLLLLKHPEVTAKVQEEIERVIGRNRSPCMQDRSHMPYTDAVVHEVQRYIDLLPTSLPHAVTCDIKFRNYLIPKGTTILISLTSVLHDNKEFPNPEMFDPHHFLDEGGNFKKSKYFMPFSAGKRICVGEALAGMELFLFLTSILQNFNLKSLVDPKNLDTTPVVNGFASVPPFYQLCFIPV

N#CC1C(C#N)C2CCC1C1C2N1c1ccccc1 (stereo unspecified)
AC50 [1]: 7.8 µM (active)

N=C(N)SCCc1ccc(CCSC(=N)N)cc1
AC50 (Cytochrome P450 2D6): 31.6 µM (inconclusive) | AC50 (Cytochrome P450 3A4): inconclusive

COc1ccccc1N=Nc1[nH]c2ccc(C)cc2c1O
IC50 [2]: 6.6 µM (active) | IC50 [3]: 6.59 µM (active)

O=C(Nc1ccccc1)c1cc2ccccc2o1
CC50 [4]: > 40 µM (active) | IC50 (cells): 6.22 µM (active)

O=C(NC1CCCC1)c1cc(Cl)ccc1[N+](=O)[O-]
AC50 [1]: 0.948 µM (active)

O=S(=O)(c1ccccc1)N1CCC2(CC1)CN(C(c1ccccc1)c1ccccc1)C2
AC50 (Cytochrome P450 3A4): inconclusive

CSC1=NC(=O)/C(=C/c2ccc(SC)cc2)S1
AC50 [1]: 16.2 µM (active)

OCCNC1=NCCN1
IC50 [2]: 1.95 µM (active) | IC50 [3]: 2.2 µM (active)

CCOC(=O)C1(CCCc2ccccc2)CCN(Cc2cnn(C)c2)CC1
EC50 [5]: 0.596 µM (active) | EC50 [6]: > 92.5 µM (inactive) | EC50 (Mu-type opioid receptor): 43 µM (inactive) | EC50 [7]: > 92.5 µM (inactive)

CCn1cc(CNCc2cn(-c3ccccc3C)nc2-c2ccc(OC)c(F)c2)cn1
EC50 [5]: 1.33 µM (active) | EC50 [6]: > 92.5 µM (inactive) | EC50 (Mu-type opioid receptor): 18.9 µM (inactive) | EC50 [7]: 34.7 µM (inactive)

Cc1ccc2c(c1)C1CN(C)CCC1N2CC(=O)N(C)c1ccccc1 (stereo unspecified)
IC50 [2]: 9.94 µM (active) | IC50 [3]: 5.51 µM (active)

COc1ccccc1OCCNC(=O)c1ccc(Br)cc1
AC50 [8]: 10.8 µM (active)

CN1C2CCC1/C(=C\c1ccccc1)C(=O)/C2=C\c1ccccc1
AC50 [9]: 4.4 µM (active) | EC50 (H4): > 120 µM (not active) | AC50 (Cytochrome P450 1A2): 39.8 µM (inconclusive) | EC50 [10]: > 120 µM (not active) | AC50 (Cytochrome P450 3A4): inconclusive | EC50 [11]: 6.92 µM (active) | AC50 (Cytochrome P450 2C19): 10 µM (inconclusive) | AC50 (Cytochrome P450 2C9): inconclusive

CCN1CCN(c2ccc(S(=O)(=O)N3CCCCC3)cc2NC(=O)/C=C/c2ccc(OC(F)F)cc2)CC1
IC50 [2]: 7.32 µM (active) | IC50 [3]: 4.28 µM (active)

CCOC(=O)N1CCN(C(=O)c2oc3ccc(S(=O)(=O)N4CCCCC4)cc3c2C)CC1
AC50 (Cytochrome P450 2D6): 20 µM (inconclusive) | AC50 (Cytochrome P450 3A4): inconclusive | AC50 (Cytochrome P450 2C19): 28.2 µM (inconclusive)
